Measured values published in patent US5614504A, “Method of making inosine monophosphate derivatives and immunopotentiating uses thereof” (The University of South Florida, priority 1995, dated 1997).
Like-named read-outs stand apart in the source and are kept apart here.

Legend:
[1] = tested on: murine splenocytes; assay: Murine splenocyte proliferation with PHA or LPS; format: cell-based, BALB/c mice; details: for tritiated thymidine incorporation, LPS 10 μg/ml / tritiated thymidine incorporation, PHA 0.5 μg/ml: mean CPM±SEM
Method: In vitro: Both human peripheral blood lymphocytes (HPBL) and mouse spleen lymphocytes (MSL) were employed. Proliferation was assayed by tritiated thymidine incorporation, as described in Hadden et al. (1975) and Hadden et al. (1986). For HPBL transformation, PHA and PWM were used at 0.5 μg/ml. For MSL transformation, Con A was used at 0.5 μg/ml, phytohemagglutinin (PHA, Murex Diagnostics, Atlanta, Ga.) at 0.5 μg/ml and lipopolysaccharide endotoxin (LPS, Sigma, St. Louis, Mo.) at 10 μg/ml. When protected-IMP derivatives were added, they were added at the onset of culture at varying concentrations ranging from 0.1 μg/ml to 100 μg/ml.
Murine splenocytes were obtained from BALB/c mice, 4-12 months old, by standard procedures (Hadden et al., 1975). They were cultured in microwell plates at 1.5×10^6 cells/ml of minimal essential media (MEM, Gibco Labs, Grand Island, N.Y.) with 5% fetal calf serum (FCS, Hyclone Labs, Logan, Utah) and tested for their proliferative response to mitogens as measured by incorporation of (^3 H) tritiated thymidine (New England Nuclear, Wilmington Del., […]; 2.5 μCi/ml) during a terminal pulse followed by liquid scintillation spectrometry. Human cells were seeded at […] and cultured for 48 hours with an 18 hour pulse with ^3 H-thymidine.
In a further experiment, murine splenocytes were incubated with PHA or LPS and MIMP (1-100 μg/ml). […] Splenocyte responses to PHA preferentially reflect T lymphocyte responses, confirming the responses seen with ConA. The LPS responses also parallel the previous experiment.
The data was obtained from four different animals and represent quadruplicate samples for each concentration. They are expressed as mean CPM±SEM, with * showing a significance of p<0.05 and ** showing p<0.01.

[2] = tested on: CD4+ lymphocytes; assay: PHA response of CD4+ enriched human lymphocytes; format: cell-based; details: MIMP 1-200 μg/ml, 3 donors, p <0.01
Source text: Human CD4+ and CD8+ lymphocyte subsets were obtained from normal controls using commercial panning techniques (Applied Immune Sciences, Santa Clara, Calif.).
Human peripheral blood lymphocytes are on average approximately 80% T lymphocytes and 20% B lymphocytes and of the T lymphocytes, 2/3 are of the CD4+ helper/inducer phenotype and 1/3 are the CD8+ suppressor/cytotoxic phenotype. Enrichment of CD4+ T cells or CD8+ T cells can be achieved through reduction of the other phenotype (>98%) removal using adherence to monoclonal antibody-coated flasks (panning).

[3] = tested on: influenza virus; format: in vivo, NMRI mice; details: for % mortality: Table 7, 200 μg, i.n.
[4] = tested on: L. monocytogenes EGD; assay: Listeria infection mortality; format: in vivo, BALB/c mice; details: for Mortality: Dead/Total: 1 dose, Day -5, day 4
[5] = Further set: percent hydrolysis by 5'-nucleotidase (Table 1B); format: in vitro ADME, Crotalus atrox; details: rattlesnake, 20 minutes incubation, 200 μl
Method: Nucleotide samples (40-60 nmoles) were incubated at 37° C. for 10 minutes with 0.02 units 5'-nucleotidase in a total volume of 100 μl containing […] HEPES, pH 7.3 and […] MgCl2. […] Phosphate was determined by the absorbance of 820 nm. Blanks consisting of nucleotide but no enzyme were tested in parallel to correct for non-enzymatic hydrolysis.
The protocol was as hereinabove except that the first incubation was for 20 minutes in a total volume of 200 μl, 0.1 mM HEPES and 10 mM MgCl2. The percent hydrolysis of nucleotides was performed in duplicate for each assay.

[6] = tested on: human peripheral blood lymphocytes (HPBL); assay: PHA responses of HPBL from aged and HIV-infected individuals; format: cell-based; details: 100 μg/ml
Method: The human donors included 22 healthy controls (ages ranging from 20-50), 24 aged individuals (mean age 84 years, ±1), 8 HIV-infected pre-AIDS patients (CDC Class II-mean CD4 count 544), and 8 AIDS patients (mean CD4 count 40).
FIG. 7 depicts the PHA responses of these aged and HIV-infected individuals and the effect of stimulation with 100 μg/ml of MIMP compared to normal controls (C).

[7] = tested on: anti-HBs; assay: Anti-HBs production in normal DBA/2 mice (EIA); format: in vivo; details: for anti-HBs, Day 14 / anti-HBs, Day 21: 50 mg/kg
Source text: Different strains of mice, coded by Pre-S2 zone S-gene HBV for their immune responses for proteins place them in the following haplotype order (Benaceraf and McDevitt, 1972): H-2^b >H-2^d >H-2^s >H-2^k>H-2^f. […] Therefore, male DBA/2 mice weighing 16-18 grams were obtained from the Animal Laboratory, Academy of Medical Science, Russia, and were used in the examples set forth herein. This line of mice was chosen as they are poor responders to hepatitis B vaccine.
Serum specimens from immunized mice were tested for the presence of anti-HBs in an enzyme immunoassay (EIA) using the diagnostic kits of Roche Diagnostica as per the manufacturer's instructions. The anti-HBs EIA kit (Roche), has a sensitivity of <10 IU/1.
Antibody concentration was determined with the help of calibration curves designed on the basis of the results of anti-HBs detection in standard serum panel (Roche Diagnostica) with the concentrations, as follows: 10 IU/l; 50 IU/l; 100 IU/l and 150 IU/l. The results of the two experiments were used for the calculation of mean values.
HBsAg was administered at a dose of […] in 0.2 ml PBS (pH 7.4) twice with an interval of two weeks between injections.
A protected-IMP, MIMP, was introduced both orally or intraperitoneally at a dose of 50 mg/kg.
The results of anti-HBs detection in the control group of mice treated with HBsAg alone and in the groups treated with the combination of HBsAg and MIMP, as prepared in the examples, are presented in Table 9. The various vaccination schedules are provided in the following list.

[8] = tested on: γ-IFN; assay: PHA-induced γ-IFN production; format: cell-based; details: preliminary data
[9] = scheme 3: HBsAg + MIMP i.p. simultaneously then MIMP per os, p < 0.01

For `COP(=O)(O)OC[C@H]1O[C@@H](n2cnc3c(=O)[nH]cnc32)[C@H](O)[C@@H]1O` [Me-IMP, Methyl-5'-inosine-monophosphate], the “tritiated thymidine incorporation, LPS 10 μg/ml” value ([1]; MIMP 1 μg/ml) was 47261 ± 997 CPM, the “tritiated thymidine incorporation, PHA 0.5 μg/ml” value ([1]; MIMP 1 μg/ml) was 106647 ± 4917 CPM and the “tritiated thymidine incorporation, LPS 10 μg/ml” value ([1]; MIMP 10 μg/ml, p<0.05) was 57481 ± 2343 CPM. The “tritiated thymidine incorporation, PHA 0.5 μg/ml” value ([1]; MIMP 10 μg/ml, p<0.05) was 117247 ± 6500 CPM, the “tritiated thymidine incorporation, PHA 0.5 μg/ml” value ([1]; MIMP 100 μg/ml, p<0.01) was 124801 ± 6630 CPM and the “tritiated thymidine incorporation, LPS 10 μg/ml” value ([1]; MIMP 100 μg/ml, p<0.05) was 55153 ± 6176 CPM. The “splenocyte responses in the absence of mitogens” value ([1]; MIMP 1-100 μg/ml) was “did not affect”, the “proliferative responses in the presence of mitogens” value ([1]; MIMP 1-100 μg/ml, PHA or LPS) was “progressively and significantly augumented” and the “PHA response of CD4+ lymphocytes” value [2] was “significantly augmented”. For the same compound, the “% mortality” value ([3]; -1 h) was 80%, the “% mortality” value ([3]; -1 d) was 60% and the “number of survivors and mean survival time (MST)” value ([3]; mouse, in vivo) was “increased the number of survivors and mean survival time”. The “survival and MST” value ([3]; mouse, in vivo) was “increased survival and MST”, the MST and survivors ([4]; 0.1 to 10 mg/kg, combined i.p. and p.o. from five days prior to challenge) was “increased MST and survivors” and the “mean survival time (MST) and absolute number of survivors” value ([4]; by mouth and at 1 and 10 mg/kg by i.p. injection, five days prior to challenge) was “increased mean survival time (MST) and the absolute number of survivors”. For the same compound, the “Mortality: Dead/Total” value ([4]; scheme N1 2: MIMP 1.0 per os) was 2/3, the “Mortality: Dead/Total” value ([4]; scheme N1 3: MIMP 10.0 per os) was 1/8 and the metabolised at 20 min ([5]; read-out: Percent hydrolysis by 5'-nucleotidase, Assay 1) was 1.5%. The metabolised at 20 min ([5]; read-out: Percent hydrolysis by 5'-nucleotidase, Assay 2) was 2.2%, the metabolised at 20 min ([5]; read-out: Percent hydrolysis by 5'-nucleotidase, Assay 3) was 2.6% and the “response of lymphocytes to MIMP in presence of PHA” value (“response of lymphocytes to MIMP” below) ([6]; 8 AIDS patients) was “no response”. The “response of lymphocytes to MIMP” value ([6]; 8 HIV-infected (ARC) individuals) was “significant response”, the “response of lymphocytes to MIMP” value ([6]; 9 aged patients (Ag-)) was “markedly depressed responses to PHA and also to MIMP” and the “response of lymphocytes to MIMP” value ([6]; 15 aged patients (Ag+)) was “normal PHA responses and responses to MIMP”. For the same compound, the “response of lymphocytes to MIMP” value ([6]; 22 controls) was “normal PHA and MIMP responses”, the “anti-HBs, Day 14” value ([7]; scheme 2: HBsAg + MIMP per os 30 minutes prior to vaccine) was less than 10 IU/1 and the “anti-HBs, Day 21” value ([7]; scheme 2: HBsAg + MIMP per os 30 minutes prior to vaccine, 0.01 < p < 0.05) was 370 IU/1. The “anti-HBs, Day 14” value [7, 9] was 100 IU/1, the “anti-HBs, Day 21” value [7, 9] was 610 IU/1 and the “anti-HBs, Day 21” value ([7]; scheme 4: HBsAg + MIMP i.p. simultaneously, 0.01 < p < 0.05) was 420 IU/1. For the same compound, the “anti-HBs, Day 14” value ([7]; scheme 4: HBsAg + MIMP i.p. simultaneously, p < 0.01) was 100 IU/1, the “level of antibodies to HBsAg” value ([7]; single intraperitoneal or single oral dose of 50 mg/kg) was “significant increase” and the “effect on PHA-induced γ-IFN” value [8] was “only a small effect”.
